Test results reported in ChEMBL document CHEMBL1909294, “Translating clinical findings into knowledge in drug safety evaluation--drug induced liver injury prediction system (DILIps)” (PLoS Comput Biol, 2011).

What was measured:
[1] = test system: Hepatotoxicity;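 for HepSE Combined Scores: combined hepatic side effect score as listed in the training data of the Drug Induced Liver Injury Prediction System (DILIps)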;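 for HepSE bilirubinemia: bilirubinemia hepatic side effect score drawn from the DILIps training data, a prediction system for drug-induced liver injury; call rule not given here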;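 for HepSE cholecystitis: Cholecystitis-related hepatic side effect score drawn from the DILIps (drug-induced liver injury prediction) training data set; call rule not given here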;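 for HepSE cholelithiasis: hepatic side effect score for cholelithiasis, drawn from the DILIps training data for predicting drug-induced liver injury; call rule not given here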;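 for HepSE elevated liver function tests: hepatic side effect score for raised liver function tests, as recorded in the DILIps training set used for predicting drug-induced liver injury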;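 for HepSE jaundice: Jaundice-related hepatic side-effect score drawn from the training data of the DILIps (drug-induced liver injury prediction system); call rule not given here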; for HepSE liver disease: call rule not given here
[2] = test system: Hepatotoxicity; remark: listed apart in the source;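 for HepSE Combined Scores: combined hepatic side effect score as listed in the training data of the Drug Induced Liver Injury Prediction System (DILIps)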;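 for HepSE bilirubinemia: bilirubinemia hepatic side effect score drawn from the DILIps training data, a prediction system for drug-induced liver injury; call rule not given here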;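 for HepSE cholecystitis: Cholecystitis-related hepatic side effect score drawn from the DILIps (drug-induced liver injury prediction) training data set; call rule not given here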;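 for HepSE cholelithiasis: hepatic side effect score for cholelithiasis, drawn from the DILIps training data for predicting drug-induced liver injury; call rule not given here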;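 for HepSE elevated liver function tests: hepatic side effect score for raised liver function tests, as recorded in the DILIps training set used for predicting drug-induced liver injury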;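 for HepSE jaundice: Jaundice-related hepatic side-effect score drawn from the training data of the DILIps (drug-induced liver injury prediction system); call rule not given here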; for HepSE liver disease: call rule not given here
[3] = test system: Hepatotoxicity; remark: listed apart in the source;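 for HepSE Combined Scores: combined hepatic side effect score as listed in the training data of the Drug Induced Liver Injury Prediction System (DILIps)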;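 for HepSE bilirubinemia: bilirubinemia hepatic side effect score drawn from the DILIps training data, a prediction system for drug-induced liver injury; call rule not given here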;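 for HepSE cholecystitis: Cholecystitis-related hepatic side effect score drawn from the DILIps (drug-induced liver injury prediction) training data set; call rule not given here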;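 for HepSE cholelithiasis: hepatic side effect score for cholelithiasis, drawn from the DILIps training data for predicting drug-induced liver injury; call rule not given here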;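 for HepSE elevated liver function tests: hepatic side effect score for raised liver function tests, as recorded in the DILIps training set used for predicting drug-induced liver injury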; for HepSE liver disease: call rule not given here
[4] = test system: Hepatotoxicity; remark: listed apart in the source;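 for HepSE Combined Scores: combined hepatic side effect score as listed in the training data of the Drug Induced Liver Injury Prediction System (DILIps)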;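 for HepSE bilirubinemia: bilirubinemia hepatic side effect score drawn from the DILIps training data, a prediction system for drug-induced liver injury; call rule not given here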;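 for HepSE cholecystitis: Cholecystitis-related hepatic side effect score drawn from the DILIps (drug-induced liver injury prediction) training data set; call rule not given here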;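 for HepSE cholelithiasis: hepatic side effect score for cholelithiasis, drawn from the DILIps training data for predicting drug-induced liver injury; call rule not given here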;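 for HepSE elevated liver function tests: hepatic side effect score for raised liver function tests, as recorded in the DILIps training set used for predicting drug-induced liver injury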; for HepSE liver disease: call rule not given here
[5] = test system: Hepatotoxicity; remark: listed apart in the source; for HepSE liver disease: call rule not given here
[6] = test system: Hepatotoxicity; remark: listed apart in the source; for HepSE liver disease: call rule not given here
[7] = test system: Hepatotoxicity; remark: listed apart in the source
[8] = test system: Hepatotoxicity; remark: listed apart in the source
[9] = test system: Hepatotoxicity; remark: listed apart in the source
[10] = test system: Hepatotoxicity; remark: listed apart in the source
[11] = test system: Hepatotoxicity; remark: listed apart in the source
[12] = test system: Hepatotoxicity; remark: listed apart in the source
[13] = test system: Hepatotoxicity; remark: listed apart in the source
[14] = test system: Hepatotoxicity; remark: listed apart in the source

Row | SMILES | HepSE_elevated liver function tests [1] | HepSE_bilirubinemia [2] | HepSE_liver disease [3] | HepSE_Combined Scores [4] | HepSE_cholelithiasis [5] | HepSE_hepatitis [6] | HepSE_cholecystitis [7] | HepSE_liver fatty [8] | HepSE_jaundice [9] | HepSE_hepatomegaly [10] | HepSE_hepatic failure [11] | HepSE_liver function tests abnormal [12] | HepSE_hepatic necrosis [13] | HepSE_cirrhosis [14]
1 | CC(C)CN(C[C@@H](O)[C@H](Cc1ccccc1)NC(=O)O[C@H]1CCOC1)S(=O)(=O)c1ccc(N)cc1 | 0 | 0 | 0 | 0 | 0 | 0 | 0 | 0 | 0 | 0 | 0 | 0 | 0 | 0
2 | COc1cc2c(cc1OC)[C@@H](Cc1cc(OC)c(OC)c(OC)c1)[N+](C)(CCCOC(=O)CC/C=C/CCC(=O)OCCC[N+]1(C)CCc3cc(OC)c(OC)cc3[C@H]1Cc1cc(OC)c(OC)c(OC)c1)CC2 (some centres not stated) | 0 | 0 | 0 | 0 | 0 | 0 | 0 | 0 | 0 | 0 | 0 | 0 | 0 | 0
3 | [Mg] | 0 | 0 | 0 | 0 | 0 | 0 | 0 | 0 | 0 | 0 | 0 | 0 | 0 | 0
4 | C[C@@H](NCCCc1cccc(C(F)(F)F)c1)c1cccc2ccccc12 | 0 | 0 | 0 | 0 | 0 | 0 | 0 | 0 | 0 | 0 | 0 | 0 | 0 | 0
5 | Nc1ncnc2c1ncn2[C@@H]1O[C@H](COP(=O)(S)S)[C@@H](O)[C@H]1O | 1 | 0 | 0 | 6 | 0 | 1 | 0 | 0 | 1 | 0 | 1 | 0 | 1 | 1
6 | O=C(CO)[C@@H](O)[C@@H](O)COP(=O)(O)O | 0 | 0 | 0 | 0 | 0 | 0 | 0 | 0 | 0 | 0 | 0 | 0 | 0 | 0
7 | OC[C@H]1O[C@@H](O)[C@@H](F)[C@@H](O)[C@@H]1O | 0 | 0 | 0 | 0 | 0 | 0 | 0 | 0 | 0 | 0 | 0 | 0 | 0 | 0
8 | CC(C)CN(C[C@@H](O)[C@H](Cc1ccccc1)NC(=O)O[C@H]1CO[C@H]2OCC[C@H]21)S(=O)(=O)c1ccc(N)cc1 | 0 | 1 | 0 | 5 | 0 | 1 | 0 | 0 | 1 | 0 | 1 | 0 | 0 | 1
9 | CN1CCC[C@@H]1Cc1c[nH]c2ccc(CCS(=O)(=O)c3ccccc3)cc12 | 0 | 1 | 0 | 2 | 0 | 0 | 0 | 0 | 0 | 0 | 0 | 1 | 0 | 0
10 | COCCCOc1cc(C[C@@H](C[C@H](N)[C@@H](O)C[C@H](C(=O)NCC(C)(C)C(N)=O)C(C)C)C(C)C)ccc1OC | 0 | 0 | 0 | 0 | 0 | 0 | 0 | 0 | 0 | 0 | 0 | 0 | 0 | 0
11 | CC(C)(C)NC(=O)[C@@H]1CN(Cc2cccnc2)CCN1C[C@@H](O)C[C@@H](Cc1ccccc1)C(=O)N[C@H]1c2ccccc2C[C@H]1O.O | 0 | 1 | 0 | 4 | 0 | 1 | 0 | 0 | 1 | 0 | 1 | 0 | 0 | 0
12 | CN1CC(=O)N2[C@H](c3ccc4c(c3)OCO4)c3[nH]c4ccccc4c3C[C@@H]2C1=O | 0 | 0 | 0 | 1 | 0 | 0 | 0 | 0 | 0 | 0 | 0 | 1 | 0 | 0
13 | N[C@@H](Cc1ccc(N(CCCl)CCCl)cc1)C(=O)O | 0 | 0 | 0 | 3 | 0 | 1 | 0 | 0 | 1 | 0 | 0 | 1 | 0 | 0
